{"source": "ChEMBL document CHEMBL3872257", "about": "“Multitarget drug design strategy against Alzheimer's disease: Homoisoflavonoid Mannich base derivatives serve as acetylcholinesterase and monoamine oxidase B dual inhibitors with multifunctional properties” (Bioorg Med Chem, 2017)", "note": "The source made the active and inactive calls. No cut-off for these calls is given here.", "data": [{"system": "not listed separately", "assay": "Cytotoxicity against rat PC12 cells assessed as cell viability at 100 uM measured after 48 hrs by MTT assay relative to control", "format": "toxicity, PC-12", "conditions": "read-out: Activity", "units": {"viability at 48 h, 100 µM": "%"}, "values": [{"smiles": "COc1cc2c(cc1OC)C(=O)/C(=C/c1ccc(CN3CCCCC3)c(O)c1)CO2", "viability at 48 h, 100 µM": 63.4}]}, {"target": "T1, Amine oxidase [flavin-containing] B (Homo sapiens, UniProt P27338)", "T1 sequence (P27338 whole entry)": "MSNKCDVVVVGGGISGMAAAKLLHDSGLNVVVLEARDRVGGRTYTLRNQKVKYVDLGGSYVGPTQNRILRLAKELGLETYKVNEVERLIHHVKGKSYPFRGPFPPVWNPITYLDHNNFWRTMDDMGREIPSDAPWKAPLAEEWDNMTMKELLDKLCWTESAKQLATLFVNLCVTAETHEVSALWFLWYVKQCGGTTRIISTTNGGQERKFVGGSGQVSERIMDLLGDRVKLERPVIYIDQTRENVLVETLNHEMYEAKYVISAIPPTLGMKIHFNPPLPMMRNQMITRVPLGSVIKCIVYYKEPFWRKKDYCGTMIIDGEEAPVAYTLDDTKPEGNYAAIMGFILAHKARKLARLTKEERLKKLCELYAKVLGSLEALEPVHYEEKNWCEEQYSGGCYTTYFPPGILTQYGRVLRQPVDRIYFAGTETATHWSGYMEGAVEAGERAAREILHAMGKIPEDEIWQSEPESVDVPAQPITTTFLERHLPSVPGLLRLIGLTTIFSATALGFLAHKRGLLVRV", "conditions": "not given", "units": {"IC50": "nM"}, "values": [{"smiles": "COc1cc2c(cc1OC)C(=O)/C(=C/c1cccc(O)c1)CO2", "IC50": 190}, {"smiles": "COc1cc2c(cc1OC)C(=O)/C(=C/c1ccc(CN3CCCC3)c(O)c1)CO2", "IC50": 722}, {"smiles": "COc1cc2c(cc1OC)C(=O)/C(=C/c1ccc(O)c(CN3CCCCC3)c1)CO2", "IC50": 14000}, {"smiles": "COc1cc2c(cc1OC)C(=O)/C(=C/c1ccc(CN3CCCCC3)c(O)c1)CO2", "IC50": 1740}]}, {"target": "Acetylcholinesterase (Electrophorus electricus) (UniProt O42275)", "sequence (O42275 24-633 limits assumed)": "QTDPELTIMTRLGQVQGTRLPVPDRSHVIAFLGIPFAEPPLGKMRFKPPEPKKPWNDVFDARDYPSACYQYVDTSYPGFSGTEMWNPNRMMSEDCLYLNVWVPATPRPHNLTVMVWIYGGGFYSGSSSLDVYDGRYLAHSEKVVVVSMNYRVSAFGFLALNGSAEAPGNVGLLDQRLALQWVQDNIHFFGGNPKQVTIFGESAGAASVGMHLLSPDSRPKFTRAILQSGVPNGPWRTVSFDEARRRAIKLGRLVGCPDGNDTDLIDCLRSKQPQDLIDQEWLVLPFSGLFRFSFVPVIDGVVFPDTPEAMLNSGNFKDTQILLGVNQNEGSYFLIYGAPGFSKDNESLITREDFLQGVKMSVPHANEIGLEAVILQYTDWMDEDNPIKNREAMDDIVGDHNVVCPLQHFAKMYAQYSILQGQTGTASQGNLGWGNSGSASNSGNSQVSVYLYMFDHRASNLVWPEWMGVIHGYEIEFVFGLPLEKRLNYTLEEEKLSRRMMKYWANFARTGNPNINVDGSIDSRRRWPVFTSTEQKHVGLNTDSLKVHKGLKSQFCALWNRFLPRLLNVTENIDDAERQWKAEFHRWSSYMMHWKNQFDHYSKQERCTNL", "assay": "Mixed-type inhibition of […] AChE preincubated for 15 mins followed by addition of acetylthiocholine iodide as substrate in varying concentrations by Lineweaver-Burk reciprocal plot analysis", "conditions": "not given", "values": [{"smiles": "COc1cc2c(cc1OC)C(=O)/C(=C/c1ccc(CN3CCCCC3)c(O)c1)CO2", "inhibition": "Active"}]}, {"target": "Acetylcholinesterase (Electrophorus electricus, UniProt O42275)", "sequence (O42275 whole entry)": "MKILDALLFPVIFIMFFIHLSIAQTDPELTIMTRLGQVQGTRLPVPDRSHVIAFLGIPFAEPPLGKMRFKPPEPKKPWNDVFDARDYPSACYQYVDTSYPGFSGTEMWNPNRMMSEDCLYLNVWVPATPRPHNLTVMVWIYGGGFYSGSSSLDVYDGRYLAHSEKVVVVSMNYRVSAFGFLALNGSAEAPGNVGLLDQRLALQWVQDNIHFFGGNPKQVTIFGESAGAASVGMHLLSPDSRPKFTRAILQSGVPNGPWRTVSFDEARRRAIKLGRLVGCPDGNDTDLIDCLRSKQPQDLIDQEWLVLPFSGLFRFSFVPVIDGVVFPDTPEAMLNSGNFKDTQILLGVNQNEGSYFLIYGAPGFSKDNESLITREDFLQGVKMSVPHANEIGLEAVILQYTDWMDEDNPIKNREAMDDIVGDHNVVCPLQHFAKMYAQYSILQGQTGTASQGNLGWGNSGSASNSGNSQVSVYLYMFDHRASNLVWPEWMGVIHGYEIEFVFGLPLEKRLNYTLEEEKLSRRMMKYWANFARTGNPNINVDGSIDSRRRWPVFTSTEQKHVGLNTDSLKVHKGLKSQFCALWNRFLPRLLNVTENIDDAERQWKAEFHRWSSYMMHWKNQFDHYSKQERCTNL", "assay": "Inhibition of Electrophorus electricus AChE using acetylthiocholine iodide as substrate measured after 15 mins by Ellman's method", "conditions": "not given", "units": {"IC50": "nM"}, "values": [{"smiles": "COc1cc2c(cc1OC)C(=O)/C(=C/c1cccc(O)c1)CO2", "IC50": 59300}, {"smiles": "COc1cc2c(cc1OC)C(=O)/C(=C/c1ccc(CN3CCCC3)c(O)c1)CO2", "IC50": 362}, {"smiles": "COc1cc2c(cc1OC)C(=O)/C(=C/c1ccc(O)c(CN3CCCCC3)c1)CO2", "IC50": 928}, {"smiles": "COc1cc2c(cc1OC)C(=O)/C(=C/c1ccc(CN3CCCCC3)c(O)c1)CO2", "IC50": 2.49}]}, {"system": "not listed separately", "assay": "Antioxidant activity assessed as trolox equivalent of […]-induced radical scavenging activity preincubated for 15 mins followed by AAPH addition measured every minute for 120 mins by ORAC fluorescein assay", "format": "functional", "conditions": "not given", "units": {"Activity": "equiv"}, "values": [{"smiles": "COc1cc2c(cc1OC)C(=O)/C(=C/c1cccc(O)c1)CO2", "Activity": 1.73}, {"smiles": "COc1cc2c(cc1OC)C(=O)/C(=C/c1ccc(CN3CCCC3)c(O)c1)CO2", "Activity": 1.65}, {"smiles": "COc1cc2c(cc1OC)C(=O)/C(=C/c1ccc(O)c(CN3CCCCC3)c1)CO2", "Activity": 2.32}, {"smiles": "COc1cc2c(cc1OC)C(=O)/C(=C/c1ccc(CN3CCCCC3)c(O)c1)CO2", "Activity": 2.25}]}, {"target": "Amyloid-beta precursor protein (Homo sapiens) (UniProt P05067)", "sequence (P05067 whole entry, the tested form may be a part)": "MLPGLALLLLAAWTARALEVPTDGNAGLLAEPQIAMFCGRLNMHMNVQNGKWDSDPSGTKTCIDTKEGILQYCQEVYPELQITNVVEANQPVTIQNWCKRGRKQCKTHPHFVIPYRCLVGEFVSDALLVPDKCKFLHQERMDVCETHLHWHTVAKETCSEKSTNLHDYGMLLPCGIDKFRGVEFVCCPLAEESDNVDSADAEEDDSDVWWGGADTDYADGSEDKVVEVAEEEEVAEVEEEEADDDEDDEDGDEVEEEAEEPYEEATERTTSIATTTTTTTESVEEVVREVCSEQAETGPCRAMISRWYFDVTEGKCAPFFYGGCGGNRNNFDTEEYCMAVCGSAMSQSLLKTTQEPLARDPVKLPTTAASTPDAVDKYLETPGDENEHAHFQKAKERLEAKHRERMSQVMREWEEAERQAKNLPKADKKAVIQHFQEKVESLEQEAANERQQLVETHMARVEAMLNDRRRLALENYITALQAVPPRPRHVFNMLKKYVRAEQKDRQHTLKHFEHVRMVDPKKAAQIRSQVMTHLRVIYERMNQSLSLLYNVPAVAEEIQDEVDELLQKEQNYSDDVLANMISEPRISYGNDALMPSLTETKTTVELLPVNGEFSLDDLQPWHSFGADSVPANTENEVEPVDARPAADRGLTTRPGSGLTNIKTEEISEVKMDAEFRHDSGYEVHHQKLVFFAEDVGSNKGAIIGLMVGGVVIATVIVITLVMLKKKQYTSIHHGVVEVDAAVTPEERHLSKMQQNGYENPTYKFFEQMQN", "assay": "Inhibition of self-mediated aggregation of amyloid beta (1 to 42 residues) (unknown origin) at 25 uM incubated for 24 hrs by Thioflavin T fluorescence assay relative to control", "conditions": "not given", "units": {"inhibition": "%"}, "values": [{"smiles": "COc1cc2c(cc1OC)C(=O)/C(=C/c1cccc(O)c1)CO2", "inhibition": 20.1}, {"smiles": "COc1cc2c(cc1OC)C(=O)/C(=C/c1ccc(CN3CCCC3)c(O)c1)CO2", "inhibition": 37.3}, {"smiles": "COc1cc2c(cc1OC)C(=O)/C(=C/c1ccc(O)c(CN3CCCCC3)c1)CO2", "inhibition": 41.4}, {"smiles": "COc1cc2c(cc1OC)C(=O)/C(=C/c1ccc(CN3CCCCC3)c(O)c1)CO2", "inhibition": 39.3}]}, {"species": "Homo sapiens", "assay": "Selectivity index, ratio of IC50 for human recombinant MAO-A to IC50 for human recombinant MAO-B", "conditions": "not given", "values": [{"smiles": "COc1cc2c(cc1OC)C(=O)/C(=C/c1cccc(O)c1)CO2", "Ratio IC50": "> 105"}, {"smiles": "COc1cc2c(cc1OC)C(=O)/C(=C/c1ccc(CN3CCCC3)c(O)c1)CO2", "Ratio IC50": "> 27.7"}, {"smiles": "COc1cc2c(cc1OC)C(=O)/C(=C/c1ccc(O)c(CN3CCCCC3)c1)CO2", "Ratio IC50": "> 1.4"}, {"smiles": "COc1cc2c(cc1OC)C(=O)/C(=C/c1ccc(CN3CCCCC3)c(O)c1)CO2", "Ratio IC50": "> 11.5"}]}, {"system": "not listed separately", "assay": "Metal chelating activity assessed as aluminium-compound complex formation at 37.5 uM in presence of AlCl3 measured after 30 mins by UV-vis spectrometry", "format": "physicochemical", "conditions": "0.5 h", "values": [{"smiles": "COc1cc2c(cc1OC)C(=O)/C(=C/c1ccc(CN3CCCCC3)c(O)c1)CO2", "Activity": "Active"}]}, {"system": "not listed separately", "assay": "Inhibition of copper-mediated aggregation of amyloid beta (1 to 42 residues) (unknown origin) at 25 uM incubated for 24 hrs by thioflavin-T fluorescence assay relative to control", "format": "physicochemical", "conditions": "not given", "units": {"inhibition (INH)": "%"}, "values": [{"smiles": "COc1cc2c(cc1OC)C(=O)/C(=C/c1cccc(O)c1)CO2", "inhibition (INH)": 30.3}, {"smiles": "COc1cc2c(cc1OC)C(=O)/C(=C/c1ccc(CN3CCCC3)c(O)c1)CO2", "inhibition (INH)": 36.5}, {"smiles": "COc1cc2c(cc1OC)C(=O)/C(=C/c1ccc(O)c(CN3CCCCC3)c1)CO2", "inhibition (INH)": 49}, {"smiles": "COc1cc2c(cc1OC)C(=O)/C(=C/c1ccc(CN3CCCCC3)c(O)c1)CO2", "inhibition (INH)": 47}]}, {"target": "Butyrylcholinesterase (Rattus norvegicus) (UniProt Q9JKC1)", "sequence (Q9JKC1 as listed by the source)": "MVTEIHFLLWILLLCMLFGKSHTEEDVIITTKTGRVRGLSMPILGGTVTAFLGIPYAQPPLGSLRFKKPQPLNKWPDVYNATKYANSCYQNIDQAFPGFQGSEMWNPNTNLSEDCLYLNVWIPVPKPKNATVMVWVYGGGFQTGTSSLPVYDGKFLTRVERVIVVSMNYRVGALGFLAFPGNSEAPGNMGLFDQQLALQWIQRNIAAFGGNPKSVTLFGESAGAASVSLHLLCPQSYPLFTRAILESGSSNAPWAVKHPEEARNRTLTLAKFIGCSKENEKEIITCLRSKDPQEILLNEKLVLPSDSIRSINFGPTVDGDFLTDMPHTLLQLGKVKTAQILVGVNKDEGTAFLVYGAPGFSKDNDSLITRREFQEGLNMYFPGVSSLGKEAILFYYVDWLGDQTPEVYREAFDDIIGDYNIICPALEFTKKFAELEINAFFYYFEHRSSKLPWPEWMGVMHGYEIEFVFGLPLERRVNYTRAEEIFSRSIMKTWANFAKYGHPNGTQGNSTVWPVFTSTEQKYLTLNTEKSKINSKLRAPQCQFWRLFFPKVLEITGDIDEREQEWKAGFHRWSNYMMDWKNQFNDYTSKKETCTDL", "assay": "Inhibition of rat serum BuChE at 50 uM measured after 15 mins by Ellman's method relative to control", "conditions": "not given", "units": {"inhibition": "%"}, "values": [{"smiles": "COc1cc2c(cc1OC)C(=O)/C(=C/c1cccc(O)c1)CO2", "inhibition": 6.18}, {"smiles": "COc1cc2c(cc1OC)C(=O)/C(=C/c1ccc(CN3CCCC3)c(O)c1)CO2", "inhibition": 24.1}, {"smiles": "COc1cc2c(cc1OC)C(=O)/C(=C/c1ccc(O)c(CN3CCCCC3)c1)CO2", "inhibition": "< 5"}, {"smiles": "COc1cc2c(cc1OC)C(=O)/C(=C/c1ccc(CN3CCCCC3)c(O)c1)CO2", "inhibition": 19.8}]}, {"system": "not listed separately", "assay": "Metal chelating activity assessed as copper-compound complex formation at 37.5 uM in presence of CuCl2 measured after 30 mins by UV-vis spectrometry", "format": "physicochemical", "conditions": "0.5 h", "values": [{"smiles": "COc1cc2c(cc1OC)C(=O)/C(=C/c1ccc(CN3CCCCC3)c(O)c1)CO2", "Activity": "Active"}]}, {"species": "Rattus norvegicus", "assay": "Cytotoxicity against rat PC12 cells assessed as effect on cell viability at 1 to 10 uM measured after 48 hrs by MTT assay", "format": "toxicity, cell-based", "conditions": "pc-12, 48 h", "values": [{"smiles": "COc1cc2c(cc1OC)C(=O)/C(=C/c1ccc(CN3CCCCC3)c(O)c1)CO2", "Activity": "Non-Toxic"}]}, {"system": "not listed separately", "assay": "Permeability of the compound at 100 ug/ml after 18 hrs by PAMPA assay", "format": "ADME", "conditions": "read-out: permeability", "units": {"Papp at 18 h, 100 ug/ml": "×10⁻⁶ cm/s"}, "values": [{"smiles": "COc1cc2c(cc1OC)C(=O)/C(=C/c1ccc(CN3CCCC3)c(O)c1)CO2", "Papp at 18 h, 100 ug/ml": 11.1}, {"smiles": "COc1cc2c(cc1OC)C(=O)/C(=C/c1ccc(CN3CCCCC3)c(O)c1)CO2", "Papp at 18 h, 100 ug/ml": 10.4}]}, {"target": "T2, Amine oxidase [flavin-containing] A (Homo sapiens, UniProt P21397)", "T2 sequence (P21397 whole entry)": "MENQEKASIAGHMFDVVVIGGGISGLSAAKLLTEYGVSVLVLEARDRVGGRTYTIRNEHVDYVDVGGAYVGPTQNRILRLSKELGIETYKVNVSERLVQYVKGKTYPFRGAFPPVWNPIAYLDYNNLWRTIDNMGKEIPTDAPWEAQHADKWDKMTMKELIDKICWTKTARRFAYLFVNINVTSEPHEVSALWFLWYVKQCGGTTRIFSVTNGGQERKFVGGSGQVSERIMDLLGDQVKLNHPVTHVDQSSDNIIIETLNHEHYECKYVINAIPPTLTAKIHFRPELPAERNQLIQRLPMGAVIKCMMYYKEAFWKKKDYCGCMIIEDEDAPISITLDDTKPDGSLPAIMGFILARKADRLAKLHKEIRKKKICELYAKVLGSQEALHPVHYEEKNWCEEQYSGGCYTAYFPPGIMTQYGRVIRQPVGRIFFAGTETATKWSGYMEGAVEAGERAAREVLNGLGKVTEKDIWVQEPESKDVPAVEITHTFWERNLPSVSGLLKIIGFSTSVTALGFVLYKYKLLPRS", "assay": "Inhibition of human recombinant MAO-A using kynuramine as substrate at 20 uM measured after 30 mins by fluorescence assay relative to control", "conditions": "0.5 h", "units": {"inhibition": "%"}, "values": [{"smiles": "COc1cc2c(cc1OC)C(=O)/C(=C/c1cccc(O)c1)CO2", "inhibition": 21.9}, {"smiles": "COc1cc2c(cc1OC)C(=O)/C(=C/c1ccc(CN3CCCC3)c(O)c1)CO2", "inhibition": 16.4}, {"smiles": "COc1cc2c(cc1OC)C(=O)/C(=C/c1ccc(O)c(CN3CCCCC3)c1)CO2", "inhibition": 17}, {"smiles": "COc1cc2c(cc1OC)C(=O)/C(=C/c1ccc(CN3CCCCC3)c(O)c1)CO2", "inhibition": 24.6}]}, {"system": "not listed separately", "assay": "Metal chelating activity assessed as iron-compound complex formation at 37.5 uM in presence of FeSO4 measured after 30 mins by UV-vis spectrometry", "format": "physicochemical", "conditions": "0.5 h", "values": [{"smiles": "COc1cc2c(cc1OC)C(=O)/C(=C/c1ccc(CN3CCCCC3)c(O)c1)CO2", "Activity": "Active"}]}]}
